Experimental data reported in publication PMC7038993 (Nucleic Acids Research, 2020).
One block for each molecule: values may come before it.

How the values were obtained:
[1] = biological target: Murine eukaryotic translation initiation factor 4E (eIF4E, residues 28–217); meIF4E (Mus musculus, UniProt P63073); test: time-synchronized fluorescence quenching titration; assay type: binding
[2] = biological target: eIF4E (28-217) (Mus musculus (murine), UniProt P63073 28-217); test: fluorescence quenching titration
Sequence of eIF4E (28-217) (P63073 28-217): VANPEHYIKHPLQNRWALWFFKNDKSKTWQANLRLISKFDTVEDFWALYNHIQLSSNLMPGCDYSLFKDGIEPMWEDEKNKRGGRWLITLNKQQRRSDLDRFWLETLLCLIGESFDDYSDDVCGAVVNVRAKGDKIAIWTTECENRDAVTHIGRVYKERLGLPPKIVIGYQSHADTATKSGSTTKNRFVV

Sequence of Murine eukaryotic translation initiation factor 4E (eIF4E, residues 28–217); meIF4E (P63073 28-217): as above

Molecule: C[n+]1cn([C@@H]2O[C@H](COP(=O)(O)OP(=O)(O)OP(=O)(O)OC[C@H]3O[C@@H](n4cnc5c(N)ncnc54)[C@H](O)[C@@H]3O)[C@@H](O)[C@H]2O)c2nc(N)[nH]c(=O)c21 [m^7GpppA]
- Kd [1]: 178 ± 4.3 nM

Molecule: C[n+]1cn([C@@H]2O[C@H](COP(=O)(O)OP(=O)(O)OP(=O)(O)OC[C@H]3O[C@@H](n4cnc5c(N)ncnc54)[C@H](O)[C@@H]3OP(=O)(O)OC[C@H]3O[C@@H](n4cnc5c(=O)[nH]c(N)nc54)[C@H](O)[C@@H]3O)[C@@H](O)[C@H]2O)c2nc(N)[nH]c(=O)c21 [m^7GpppApG]
- Kd [1]: 26.6 ± 0.9 nM

- Kd [1]: 25.1 ± 0.6 nM
Molecule: C[n+]1cn([C@@H]2O[C@H](COP(=O)(O)OP(=O)(O)OP(=O)(O)OC[C@H]3O[C@@H](n4ccc(N)nc4=O)[C@H](O)[C@@H]3OP(=O)(O)OC[C@H]3O[C@@H](n4cnc5c(=O)[nH]c(N)nc54)[C@H](O)[C@@H]3O)[C@@H](O)[C@H]2O)c2nc(N)[nH]c(=O)c21 [m^7GpppCpG]

- Kd [1]: 22.7 ± 0.9 nM
Molecule: C[n+]1cn([C@@H]2O[C@H](COP(=O)(O)OP(=O)(O)OP(=O)(O)OC[C@H]3O[C@@H](n4cnc5c(=O)[nH]c(N)nc54)[C@H](O)[C@@H]3OP(=O)(O)OC[C@H]3O[C@@H](n4cnc5c(=O)[nH]c(N)nc54)[C@H](O)[C@@H]3O)[C@@H](O)[C@H]2O)c2nc(N)[nH]c(=O)c21 [m^7GpppGpG]

- Kd [1]: 32.8 ± 0.8 nM
Molecule: CNc1ncnc2c1ncn2[C@@H]1O[C@H](COP(=O)(O)OP(=O)(O)OP(=O)(O)OC[C@H]2O[C@@H](n3c[n+](C)c4c(=O)[nH]c(N)nc43)[C@H](O)[C@@H]2O)[C@@H](OP(=O)(O)OC[C@H]2O[C@@H](n3cnc4c(=O)[nH]c(N)nc43)[C@H](O)[C@@H]2O)[C@H]1OC [m^7Gppp^m6AmpG]

- Kd [1]: 35.2 ± 0.8 nM
Molecule: CNc1ncnc2c1ncn2[C@@H]1O[C@H](COP(=O)(O)OP(=O)(O)OP(=O)(O)OC[C@H]2O[C@@H](n3c[n+](C)c4c(=O)[nH]c(N)nc43)[C@H](O)[C@@H]2O)[C@@H](OP(=O)(O)OC[C@H]2O[C@@H](n3cnc4c(=O)[nH]c(N)nc43)[C@H](O)[C@@H]2O)[C@H]1O [m^7Gppp^m6ApG]

B1: m7GpppAmpG (XNA)
strand: GAG
modifications: m7G1; 5'-5' triphosphate between G1 and A2; 2'-O-methyl A2
- Kd [2]: 45.6 ± 1.5 nM

B2: m7GpppCmpG (XNA)
strand: GCG
modifications: m7G1; 5'-5' triphosphate between G1 and C2; 2'-O-methyl C2
- Kd [2]: 29.9 ± 0.7 nM

B3: m7GpppGmpG (XNA)
strand: GGG
modifications: m7G1; 5'-5' triphosphate between G1 and G2; 2'-O-methyl G2
- Kd [2]: 22.8 ± 0.6 nM
